Test results reported in PMC9271048, “Probing strigolactone perception mechanisms with rationally designed small-molecule agonists stimulating germination of root parasitic weeds” (Nature Communications, 2022).
Where two headings read alike, the source gives them in different places.

What was measured:
ShHTL7 [1] = target: T1, ShHTL7 (Striga hermonthica, UniProt A0A0M3PNA2); assay: Competitive inhibition of ShHTL7 with Yoshimulactone Green (YLG) as substrate; assay type: biochemical
Description: Based on the structural feature of the lead compound 2h, we selected three regions to perform further modification (Supplementary Fig. 6), to try to further improve bioactivity. Insertion of a carbonyl group between the bicyclo[2.2.1]hept-5-en-2-yl group and the piperazine ring was detrimental to binding affinity (Supplementary Fig. 6, region A). Removal of an oxygen atom in region B was found unfavorable to binding affinity as well. Therefore, we focused on modifying the benzene ring (region C) for 2h. A series of compounds with different groups at region C was synthesized (Supplementary Scheme 1). […] As SPR just measures the binding ability, another independent assay by using Yoshimulactone Green (YLG) as the fluorescent substrate was performed to determine the half-maximal inhibitory concentration (IC50) of these compounds against ShHTL7[22].
(§1) The excitation and emission wavelengths of YLG are 480 and 520 nm, respectively. We used a fluorescence spectrophotometer (CARY Eclipse) to detect the fluorescence intensity change of YLG during the enzymatic hydrolysis assay process. All the testing compounds and YLG were dissolved in DMSO and prepared as stock solutions just before use. […] The changes of fluorescence at 520 nm of each well were recorded every 1 min for 30 min. Using the reaction mixture without adding enzyme and tested compounds as the background control. After subtracting the background hydrolysis, a linear fluorescence increase in 8 min was used for further inspection. The IC50 values were determined via fitting relative inhibition percentages with the varying concentrations of compounds in Microsoft Excel.

ShHTL7 [2] = target: T1, ShHTL7; assay: ShHTL7-hydrolysis reaction analysis (HPLC); assay type: biochemical; settings: 10 μM compound, 30 °C, 30 min; for relative percentage of hydrolysis by ShHTL7, source data average: Supplementary Figs. 11, 20a, 24a
Description: Compounds 4a, (R)- and (S)-4a, 4g-i, and rac-GR24 were dissolved in DMSO and prepared as stock solution ([…]) just before use. A 200 μL of the reaction solution consisting of PBS buffer (pH 7.3), 10 μM samples, and 10 μg recombinant ShHTL7 or its mutants was incubated at 30 °C for 30 min; with the reaction solution (200 μL) containing PBS buffer (pH 7.3) and 10 μM samples as the blank control[40],[52]. Subsequently, the reaction was terminated by adding 200 μL of methanol, and then the reaction mixture was shaken for 10 s and centrifuged at 5310 × g for 60 s. The supernatant was filtered and the remaining amount of samples was analyzed by HPLC. The relative percentages of hydrolysis were obtained by using the amount of compounds in blank control as reference.
Supplementary Fig. 11. Hydrolysis of 4a, (R)-4a, (S)-4a, 4g-i, and rac-GR24 by ShHTL7 at 30 °C for 30 min. The remaining amounts of compounds in recombinant ShHTL7 protein and buffer solution were determined by HPLC analysis. The relative percentages of hydrolysis were calculated by using the amount of compounds in the buffer as reference. The error bar indicates SD (n = 3 biologically independent experiments).
(§2) (1 picture or pasted object on this page, not shown here)

[3] = test system: PaKAI2s (5 KAI2 protein homologs in P. aegyptiaca); assay: YLG-based competition assay on KAI2 protein homologs of P. aegyptiaca; assay type: biochemical, Phelipanche aegyptiaca; settings: Supplementary Fig. 27
Text: In P. aegyptiaca, 5 KAI2s have been proposed as the SL receptors for the regulation of seed germination. […] The high sequence similarity may explain the consistency of these compounds in inducing germination in both S. hermonthica and P. aegyptiaca.
as §1
Supplementary Fig. 27. Binding of compounds 4a, (R)- and (S)-4a, and 4g-i to the HTL proteins in S. hermonthica and KAI2 protein homologs in P. aegyptiaca. In the competitive inhibitory activity assay, YLG (3 µM) was used as the fluorogenic substrate. Error bar indicates SD (n = 3 biologically independent experiments).
as §2

[4] = test system: Arabidopsis thaliana (Col-0); assay: Arabidopsis root hair assay; assay type: in vivo; settings: Col-0 seedlings on 1/2 MS medium, 1 μM; Supplementary Fig. 15; in µm (unit assumed)
Description: For Arabidopsis root hair assay, Arabidopsis thaliana (Col-0) seeds were surface sterilized by using 1% NaClO solution for 60 s and 75% ethanol solution for 60 s, and then washed by sterilized distilled water five times. The sterilized seeds were sowed on 1/2 MS media (2.202 g/L Murashige and Skoog basal salts, 0.5 g/L MES, 10 g/L sucrose, and 10 g/L agar, pH 5.7) which contained indicated concentrations of compounds. 0.1% DMSO was used as a negative control. The plates were placed 4 days at 4 °C and then placed vertically under fluorescent white light (100–150 μmol m^−2 s^−1) with 16 h light and 8 h dark at 20 ± 1 °C for 15 days[17],[55]. The root hairs were imaged by OLYMPUS (U-HGLGPS), and the lengths were analyzed by ImageJ. The experiments were repeated three times. For Arabidopsis shoot branching assay: Col-0 and max4-1 seeds were used in this experiment. Seeds surface sterilization was sterilized as described above. The Arabidopsis seedlings were placed on top of the cut black microcentrifuge tubes filled with 1/2 MS. The tubes were placed 4 days at 4 °C and then moved to fluorescent white light (100–150 μmol m^−2 s^−1) with 16 h light and 8 h dark at 20 ± 1 °C for 7 days[26]. The germinated seedlings were grown on hydroponic culture solutions (containing indicated concentrations of 4a, (R)- and (S)-4a), with the solution containing 0.01% DMSO as the negative control. The solutions were renewed every week. After 4 weeks, the numbers of rosette axillaries were analyzed.
type Arabidopsis. a, Representative primary root segments of Col-0 seedlings growing on 1/2 MS
medium with or without 1 μM tested chemicals. Scale bar, […]. b, The average length of root
hair is presented as means ± SD (n = 3 biologically independent experiments).
as §2

[5] = ShHTL7, YLG competition, Supplementary Fig. 27, read-out: IC50, replicate 1
[6] = ShHTL7, YLG competition, Supplementary Fig. 27, read-out: IC50, replicate 2
[7] = ShHTL7, YLG competition, Supplementary Fig. 27, read-out: IC50, replicate 3
[8] = wild-type ShHTL7, average of 3, source data of Fig. 2a,b, Supplementary Figs. 8a, 9a, 20b, read-out: IC50, competitive ShHTL7 inhibition (YLG), source data average
[9] = KAI2C, YLG competition, read-out: IC50, replicate 1
[10] = KAI2C, YLG competition, read-out: IC50, replicate 2
[11] = KAI2C, YLG competition, read-out: IC50, replicate 3
[12] = KAI2C, average of 3 replicates, read-out: IC50, average
[13] = KAI2d1, YLG competition, read-out: IC50, replicate 1
[14] = KAI2d1, YLG competition, read-out: IC50, replicate 2
[15] = KAI2d1, YLG competition, read-out: IC50, replicate 3
[16] = KAI2d1, average of 3 replicates, read-out: IC50, average
[17] = KAI2d2, YLG competition, read-out: IC50, replicate 1
[18] = KAI2d2, YLG competition, read-out: IC50, replicate 2
[19] = KAI2d2, YLG competition, read-out: IC50, replicate 3
[20] = KAI2d2, average of 3 replicates, read-out: IC50, average
[21] = KAI2d3, YLG competition, read-out: IC50, replicate 1
[22] = KAI2d3, YLG competition, read-out: IC50, replicate 2
[23] = KAI2d3, YLG competition, read-out: IC50, replicate 3
[24] = KAI2d3, average of 3 replicates, read-out: IC50, average
[25] = KAI2d4, YLG competition, read-out: IC50, replicate 1
[26] = KAI2d4, YLG competition, read-out: IC50, replicate 2
[27] = KAI2d4, YLG competition, read-out: IC50, replicate 3
[28] = KAI2d4, average of 3 replicates, read-out: IC50, average

T1 sequence (A0A0M3PNA2 entry or part of it): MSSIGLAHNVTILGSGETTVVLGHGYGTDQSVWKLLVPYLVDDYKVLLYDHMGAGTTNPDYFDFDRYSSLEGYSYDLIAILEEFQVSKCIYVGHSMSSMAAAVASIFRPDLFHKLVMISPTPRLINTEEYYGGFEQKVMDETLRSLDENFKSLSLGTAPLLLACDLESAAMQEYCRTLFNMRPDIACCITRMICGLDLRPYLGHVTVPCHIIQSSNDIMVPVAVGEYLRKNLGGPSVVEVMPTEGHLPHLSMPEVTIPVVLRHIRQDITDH

SMILES | IC50 (ShHTL7 [1]; [5]) [nM] | IC50 (ShHTL7 [1]; [6]) [nM] | IC50 (ShHTL7 [1]; [7]) [nM] | relative percentage of hydrolysis by ShHTL7, source data average (ShHTL7 [2]) [%] | IC50 [3, 9] [µM] | IC50 [3, 10] [µM] | IC50 [3, 11] [µM] | IC50 [3, 12] [µM] | IC50 [3, 13] [µM] | IC50 [3, 14] [µM] | IC50 [3, 15] [µM] | IC50 [3, 16] [µM] | IC50 [3, 17] [µM] | IC50 [3, 18] [µM] | IC50 [3, 19] [µM] | IC50 [3, 20] [µM] | IC50 [3, 21] [µM] | IC50 [3, 22] [µM] | IC50 [3, 23] [µM] | IC50 [3, 24] [µM] | further results
CC1=CC(CC(=O)N2CCN(C(=O)COc3ccc(Br)cc3C)CC2)OC1=O (centres unmarked) [4i] | 5980 | 5200 | 4350 | -2.582 | 48.7 | 57 | 49.5 | 51.7 | 24 | 16.7 | 20.1 | 20.3 | 54.2 | 57.7 | 57.5 | 56.5 | 51.4 | 41.1 | 40.4 | 44.3 | IC50 (ShHTL7 [1]; [8]): 5180 nM; IC50 [3, 25]: 30.7 µM; IC50 [3, 26]: 31.7 µM; IC50 [3, 27]: 26.9 µM; IC50 [3, 28]: 29.8 µM
CC1=CC(OC(=O)N2CCN(C(=O)COc3ccc(Br)cc3C)CC2)N(C)C1=O (centres unmarked) [4h] | 4330 | 5430 | 4750 | 12.2513 | 23.3 | 36.9 | 38.5 | 32.9 | 24.7 | 22.1 | 27.9 | 24.9 | 71.4 | 67.3 | 71.7 | 70.1 | 30.6 | 41.8 | 41.3 | 37.9 | IC50 (ShHTL7 [1]; [8]): 4840 nM; IC50 [3, 25]: > 100 µM; IC50 [3, 26]: > 100 µM; IC50 [3, 27]: > 100 µM; IC50 [3, 28]: > 100 µM
CC1=CC(OC(=O)N2CCN(C(=O)COc3ccc(Br)cc3C)CC2)CC1=O (centres unmarked) [4g] | 3080 | 1610 | 1970 | 10.7551 | 53.3 | 49.1 | 43 | 48.5 | 27.1 | 24.4 | 23.2 | 24.9 | 62.3 | 72.7 | 74.9 | 70 | 57.1 | 36.6 | 53.9 | 49.2 | IC50 (ShHTL7 [1]; [8]): 2220 nM; IC50 [3, 25]: 77.3 µM; IC50 [3, 26]: 85.3 µM; IC50 [3, 27]: 76.1 µM; IC50 [3, 28]: 79.6 µM
CC1=C[C@H](O/C=C2/C(=O)O[C@@H]3c4ccccc4C[C@H]23)OC1=O (racemic) [rac-GR24, reference compound] | 633 | 842 | 614 | 51.9391 | 7.31 | 5.69 | 6.56 | 6.52 | 1.78 | 2.83 | 2.39 | 2.33 | 5.14 | 2.89 | 3.46 | 3.83 | 2.27 | 2.04 | 1.55 | 1.95 | IC50 (ShHTL7 [1]; ShHTL7, average of 3 replicates, Supplementary Fig. 27, read-out: IC50, average): 696 nM; IC50 (ShHTL7 [1]; YLG used as the substrate, means ± SD, n = 3, read-out: IC50 (Supplementary Table 1)): 730 ± 110 nM; hydrolysis by ShHTL7 (ShHTL7 [2]): 51.9%; average length of root hair, source data average [4]: 474.342; IC50 [3, 25]: 6.41 µM; IC50 [3, 26]: 5.83 µM; IC50 [3, 27]: 7.25 µM; IC50 [3, 28]: 6.5 µM
CC1=CC(OC(=O)N2CCN(C(=O)COc3ccc(Br)cc3C)CC2)OC1=O (centres unmarked) [4a] | 953 | 1350 | 1320 | 36.438 | 10.9 | 13.8 | 21.5 | 15.4 | 33.3 | 33.3 | 24.8 | 30.5 | 40.8 | 46.6 | 48.6 | 45.3 | 30.6 | 26.4 | 27.7 | 28.2 | IC50 (ShHTL7 [1]; YLG as substrate, text and Fig. 2, read-out: IC50, competitive ShHTL7 inhibition (YLG assay)): 1210 ± 220 nM; IC50 (ShHTL7 [1]; [8]): 1210 nM; hydrolysis by ShHTL7 (ShHTL7 [2]): 36.4%; average length of root hair, source data average [4]: 163.912; IC50 [3, 25]: 17.4 µM; IC50 [3, 26]: 17.7 µM; IC50 [3, 27]: 26.3 µM; IC50 [3, 28]: 20.5 µM
